US9545413B2, “Methods of forming ciclopirox or derivatives thereof in a subject by administration of prodrug” (The University of Kansas, priority 2010, dated 2017)
Several values for one entry are separate records, joined by “and”; a condition that tells them apart may be missing. Identical values can stand only once. Marks after values point to notes of the source that are not given here.

Tests used:
[1] = Mouse plasma ciclopirox pharmacokinetics after 10 mg/kg IV bolus; assay type: in vivo; settings: for Plasma Ciclopirox Concentrations: individual animals A-F, phosphate disodium salt
Protocol: The plasma ciclopirox concentrations in (ng/mL) were determined following bolus administration of ciclopirox-POM prodrug at a 10 mg/kg IV bolus in a mouse model. Time points where data collected are shown in Table 1 to be at 5, 15, 30, 60, 90, 120, 180, and 240 minutes along with the data. […] The IV bolus formulation for prodrug was in 25 mM phosphate buffer.
(§1) Time points where data collected are shown in Table 1 to be at 5, 15, 30, 60, 90, 120, 180, and 240 minutes along with the data.
Additionally, mouse intravenous dose pharmacokinetics were determined.
(§2) The IV bolus and oral administrations are described above.

[2] = Detection of prodrug in plasma and urine after administration; assay type: in vivo
Text: Accordingly, ciclopirox is readily bioavailable when given IV as the prodrug. […] Based on the data, it is reasonable to believe that the ciclopirox-POM prodrug is rapidly converted to ciclopirox.
Accordingly, ciclopirox is readily bioavailable when given IV as the prodrug. […] Based on the data, it is reasonable to believe that the ciclopirox-POM prodrug is rapidly converted back to ciclopirox.

[3] = Mouse plasma ciclopirox pharmacokinetics after 30 mg/kg oral dose; assay type: in vivo
Protocol: The plasma ciclopirox (i.e., CPX) concentrations in (ng/mL) were determined following bolus administration of ciclopirox-POM prodrug at a 30 mg/kg orally in a mouse model. Time points where data collected are shown in Table 3 to be at 5, 15, 30, 60, 90, 120, 180, and 240 minutes along with the data. […] The oral formulation is a composition having Orasweet SF along with the […].
as §1
Additionally, mouse oral dose pharmacokinetics were determined.
as §2

[4] = test system: Notch-1 signaling pathway; test: Inhibition of Notch-1 signaling; assay type: cell-based; settings: bladder cancer
Text: The prodrug converts to the active ciclopirox compound that effectively suppresses stem cells in bladder cancer and specifically targets the Notch-1 signaling pathway. […] Suppressing Notch is a significant activity for the compound to inhibit bladder and other cancers where Notch signaling is active (e.g. colon cancer, osteosarcoma).
(§3) Bladder cancer presents as two diseases, NMIBC and muscle invasive bladder cancer (MIBC). Approximately three-fourths of newly diagnosed bladder cancer patients present with NMIBC. NMIBC, as it invades into bladder muscle, becomes MIBC. MIBC often metastasizes, requiring systemically administered chemotherapy agents. […] The ciclopirox from ciclopirox-POM prodrug delivery inhibits cell proliferation, colony formation, and spheroid formation in well characterized NMIBC and MIBC cell lines. Although that ciclopirox's fungicidal activity is mediated through its ability to chelate iron, and interrupt iron-dependent intracellular processes, ciclopirox in vitro anti-cancer activity in independent of commercially available iron chelators. […] Accordingly, ciclopirox-POM prodrug can be used in treatment of all forms of bladder cancer, and in cancer stem cells of many different cancers where the Notch signaling pathway is active.

[5] = test system: NMIBC and MIBC cell lines; test: Anticancer activity in bladder cancer cell lines; assay type: cell-based
Text: as §3

[6] = ciclopirox, mouse, 30 mg/kg oral
[7] = in vivo, iv, 10 mg/kg, Plasma Ciclopirox Concentrations
[8] = in vivo, iv, 10 mg/kg, Plasma Ciclopirox Concentrations, Mean
[9] = mouse, in vivo, po, 30 mg/kg, Plasma Ciclopirox Concentrations
[10] = mouse, in vivo, po, 30 mg/kg, Plasma Ciclopirox Concentrations, Mean

Cc1cc(C2CCCCC2)n(OCOP(=O)([O-])[O-])c(=O)c1.[Na+].[Na+] [Ciclopirox-POM]
Plasma Ciclopirox Concentrations ([1]; 10 mg/kg IV bolus, 5 min, 10 mg/kg): 7280 ng/mL and 7320 ng/mL and 6370 ng/mL and 9700 ng/mL and 8500 ng/mL and 8860 ng/mL | Plasma Ciclopirox Concentrations, Mean ([1]; 10 mg/kg IV bolus, 5 min): 8005 ng/mL | Plasma Ciclopirox Concentrations ([1]; 10 mg/kg IV bolus, 15 min, 10 mg/kg): 3310 ng/mL and 3180 ng/mL and 1520 ng/mL and 1370 ng/mL and 4010 ng/mL and 3190 ng/mL | Plasma Ciclopirox Concentrations, Mean ([1]; 10 mg/kg IV bolus, 15 min): 2763.3 ng/mL | Plasma Ciclopirox Concentrations ([1]; 10 mg/kg IV bolus, 30 min, 10 mg/kg): 994 ng/mL and 1200 ng/mL and 986 ng/mL and 1030 ng/mL and 1080 ng/mL and 452 ng/mL | Plasma Ciclopirox Concentrations, Mean ([1]; 10 mg/kg IV bolus, 30 min): 957 ng/mL | Plasma Ciclopirox Concentrations ([1]; 10 mg/kg IV bolus, 60 min, 10 mg/kg): 410 ng/mL and 259 ng/mL (2×) and 284 ng/mL and 409 ng/mL and 436 ng/mL | Plasma Ciclopirox Concentrations, Mean ([1]; 10 mg/kg IV bolus, 60 min): 342.8 ng/mL | Plasma Ciclopirox Concentrations ([1]; 10 mg/kg IV bolus, 90 min, 10 mg/kg): 97.6 ng/mL and 157 ng/mL and 74.2 ng/mL and 79.1 ng/mL and 162 ng/mL and 168 ng/mL | Plasma Ciclopirox Concentrations, Mean ([1]; 10 mg/kg IV bolus, 90 min): 123 ng/mL | Plasma Ciclopirox Concentrations ([1]; 10 mg/kg IV bolus, 120 min, 10 mg/kg): 58 ng/mL and 73.7 ng/mL and 57.9 ng/mL and 19.3 ng/mL and 71.7 ng/mL and 84.8 ng/mL | Plasma Ciclopirox Concentrations, Mean ([1]; 10 mg/kg IV bolus, 120 min): 60.9 ng/mL | Plasma Ciclopirox Concentrations ([1]; 10 mg/kg IV bolus, 180 min, 10 mg/kg): 18.1 ng/mL and 23 ng/mL and 19.5 ng/mL and 34.8 ng/mL and 19.7 ng/mL and 37.7 ng/mL | Plasma Ciclopirox Concentrations, Mean ([1]; 10 mg/kg IV bolus, 180 min): 25.5 ng/mL | Plasma Ciclopirox Concentrations ([1]; 10 mg/kg IV bolus, 240 min, 10 mg/kg): 13 ng/mL and 10 ng/mL (2×) and 15 ng/mL and 12 ng/mL and 8 ng/mL | Plasma Ciclopirox Concentrations, Mean ([1]; 10 mg/kg IV bolus, 240 min): 11.1 ng/mL | CPX Bioavailability Following Prodrug Administration ([1]; IV administration, prodrug compared to olamine salt): 1.143 | Alpha Half-life ([1]; ciclopirox, 10 mg/kg IV bolus): 9.84 min | Alpha rate constant ([1]; ciclopirox, 10 mg/kg IV bolus): 0.07043 min⁻¹ | Beta Half-life ([1]; ciclopirox, 10 mg/kg IV bolus): 35.92 min | Beta rate constant ([1]; ciclopirox, 10 mg/kg IV bolus): 0.01929 min⁻¹ | CL ([1]; ciclopirox, 10 mg/kg IV bolus): 48.275* mL/min/kg | Vdbeta ([1]; ciclopirox, 10 mg/kg IV bolus): 2.502 L/kg | Detection of the prodrug in plasma ([2]; following IV and oral administration): inability to detect | Detection of the prodrug in plasma and urine ([2]; following IV, oral, subcutaneous and intraperitoneal administration): inability to detect | Beta Half-life [3, 6]: 52.76 min | Beta rate constant [3, 6]: 0.01316 min⁻¹ | CL/F [3, 6]: 722.06 mL/min/kg | Cmax [3, 6]: 520.3 ng/mL | Tmax [3, 6]: 15 min | Bioavailability following oral administration ([3]; mice, oral administration): 12% | Plasma Ciclopirox Concentrations ([3]; mouse, 30 mg/kg oral dose, 0 min, individual animals A-F): 0 ng/mL | Plasma Ciclopirox Concentrations, Mean ([3]; mouse, 30 mg/kg oral dose, 0 min): 0 ng/mL | Plasma Ciclopirox Concentrations ([3]; mouse, 30 mg/kg oral dose, 15 min, individual animals A-F, phosphate disodium salt, 30 mg/kg): 388 ng/mL and 646 ng/mL and 857 ng/mL and 245 ng/mL and 479 ng/mL and 507 ng/mL | Plasma Ciclopirox Concentrations, Mean ([3]; mouse, 30 mg/kg oral dose, 15 min): 520.3 ng/mL | Plasma Ciclopirox Concentrations ([3]; mouse, 30 mg/kg oral dose, 30 min, individual animals A-F, phosphate disodium salt, 30 mg/kg): 302 ng/mL and 252 ng/mL and 264 ng/mL and 317 ng/mL and 207 ng/mL and 342 ng/mL | Plasma Ciclopirox Concentrations, Mean ([3]; mouse, 30 mg/kg oral dose, 30 min): 280.7 ng/mL | Plasma Ciclopirox Concentrations ([3]; mouse, 30 mg/kg oral dose, 60 min, individual animals A-F, phosphate disodium salt, 30 mg/kg): 129 ng/mL and 404 ng/mL and 154 ng/mL and 229 ng/mL and 171 ng/mL and 207 ng/mL | Plasma Ciclopirox Concentrations, Mean ([3]; mouse, 30 mg/kg oral dose, 60 min): 215.7 ng/mL | Plasma Ciclopirox Concentrations ([3]; mouse, 30 mg/kg oral dose, 90 min, individual animals A-F, phosphate disodium salt, 30 mg/kg): 91 ng/mL and 66.8 ng/mL and 146 ng/mL and 137 ng/mL and 120 ng/mL and 80.3 ng/mL | Plasma Ciclopirox Concentrations, Mean ([3]; mouse, 30 mg/kg oral dose, 90 min): 106.9 ng/mL | Plasma Ciclopirox Concentrations ([3]; mouse, 30 mg/kg oral dose, 120 min, individual animals A-F, phosphate disodium salt, 30 mg/kg): 72.5 ng/mL and 60.6 ng/mL and 64.6 ng/mL and 81.4 ng/mL and 83.6 ng/mL | Plasma Ciclopirox Concentrations, Mean ([3]; mouse, 30 mg/kg oral dose, 120 min): 72.5 ng/mL | Plasma Ciclopirox Concentrations ([3]; mouse, 30 mg/kg oral dose, 180 min, individual animals A-F, phosphate disodium salt, 30 mg/kg): 36.8 ng/mL and 45.1 ng/mL and 59.1 ng/mL and 66.4 ng/mL and 44.9 ng/mL and 44 ng/mL | Plasma Ciclopirox Concentrations, Mean ([3]; mouse, 30 mg/kg oral dose, 180 min): 49.4 ng/mL | Plasma Ciclopirox Concentrations ([3]; mouse, 30 mg/kg oral dose, 240 min, individual animals A-F, phosphate disodium salt, 30 mg/kg): 9.51 ng/mL and 19 ng/mL (2×) and 14.7 ng/mL and 38.1 ng/mL | Plasma Ciclopirox Concentrations, Mean ([3]; mouse, 30 mg/kg oral dose, 240 min): 20.1 ng/mL | Foral ([3]; mouse, oral 30 mg/kg v. IV bolus 10 mg/kg of the same substance): 0.06686 | CPX Bioavailability Following Prodrug Administration ([3]; mouse, oral administration, prodrug compared to olamine salt): 0.5603

Cc1cc(C2CCCCC2)n(O)c(=O)c1 [Ciclopirox Olamine, reference compound]
Alpha rate constant ([1]; in vivo, iv, 10 mg/kg): 0.08802 min⁻¹ | Beta rate constant ([1]; in vivo, iv, 10 mg/kg): 0.01208 min⁻¹ | Vdbeta ([1]; in vivo, iv, 10 mg/kg): 4.5652 L/kg | clearance ([1]; in vivo, iv, 10 mg/kg): 55.2 mL/min/kg | AUC ([1]; in vivo, iv, 10 mg/kg, AUC (CPX AUC)): 2340 ng·h/mL | half-life ([1]; in vivo, iv, 10 mg/kg, Alpha Half-life): 7.87 min | half-life ([1]; in vivo, iv, 10 mg/kg, Beta Half-life): 57.4 min | concentration at 5 min [1, 7]: 6090 ng/mL | concentration at 60 min [1, 7]: 171 ng/mL | concentration at 90 min [1, 7]: 45.2 ng/mL | concentration at 120 min [1, 7]: 46.1 ng/mL | concentration at 240 min [1, 7]: 12 ng/mL | concentration at 5 min [1, 8]: 4880 ng/mL | concentration at 15 min [1, 8]: 892 ng/mL | concentration at 30 min [1, 8]: 354 ng/mL | concentration at 60 min [1, 8]: 133 ng/mL | concentration at 90 min [1, 8]: 58.7 ng/mL | concentration at 120 min [1, 8]: 43.2 ng/mL | concentration at 180 min [1, 8]: 25.2 ng/mL | concentration at 240 min [1, 8]: 15.9 ng/mL | bioavailability ([3]; mouse, in vivo, po): 21% | AUC ([3]; mouse, in vivo, po, 30 mg/kg): 956 ng·h/mL | Beta rate constant ([3]; mouse, in vivo, po, 30 mg/kg): 0.00916 min⁻¹ | CL/F ([3]; mouse, in vivo, po, 30 mg/kg): 405 mL/min/kg | Cmax ([3]; mouse, in vivo, po, 30 mg/kg): 548 ng/mL | Tmax ([3]; mouse, in vivo, po, 30 mg/kg): 15 min | half-life ([3]; mouse, in vivo, po, 30 mg/kg): 75.7 min | Plasma Ciclopirox Concentrations ([3]; mouse, in vivo, po, 30 mg/kg, 0 min): 0 ng/mL | concentration at 0 min [3, 9]: 0 ng/mL | concentration at 15 min [3, 9]: 478 ng/mL | concentration at 30 min [3, 9]: 427 ng/mL | concentration at 180 min [3, 9]: 78.2 ng/mL | concentration at 240 min [3, 9]: 72.3 ng/mL | concentration at 0 min [3, 10]: 0 ng/mL | concentration at 15 min [3, 10]: 548 ng/mL | concentration at 30 min [3, 10]: 449 ng/mL | concentration at 60 min [3, 10]: 309 ng/mL | concentration at 90 min [3, 10]: 260 ng/mL | concentration at 120 min [3, 10]: 151 ng/mL | concentration at 180 min [3, 10]: 80.1 ng/mL | concentration at 240 min [3, 10]: 74.7 ng/mL

Cc1cc(C2CCCCC2)n(O)c(=O)c1 [ciclopirox, 6-cyclohexyl-1-hydroxy-4-methylpyridin-2(1H)-one]
Notch-1 signaling pathway [4]: inhibits | Cell proliferation [5]: inhibits | Colony formation [5]: inhibits | Spheroid formation [5]: inhibits
